Laboratory results reported in US7662361B2, “Methods and compositions for modulating drug activity through telomere damage” (priority 1999, dated 2010).

How the values were obtained:
SKOV3 cells = test: TALA telomere length after paclitaxel treatment; format: cell-based, human; conditions: 200 nM paclitaxel
PC3 cells = test: Cell detachment from the growth surface; format: cell-based, human; conditions: 20 nM paclitaxel, end of 96-hr experiment
Protocol: Upon drug treatment, the supernatant along with two subsequent Versene rinses, which contained the detached cells, were collected. […] These samples were centrifuged at 1500 rpm for 10 min and the resulting cell pellets were resuspended in 2 ml of culture media. The cell number in the detached and attached fractions were counted using a Coulter counter (Coulter Electronic, Inc., Hialeah, Fla.).

[1] = test system: telomerase activity of FaDu cells; test: TRAP telomerase activity in drug-treated cells; format: cell-based, human; conditions: 200 nM paclitaxel
Protocol: For the preparation of cell and tissue extracts, cells and tissue were harvested, washed, and stored at −70° C. Cells were then lysed in a SDS-based lysis buffer (10 mM Tris.HCl, pH 7.5, 1 mM MgCl2, 1 mM EGTA, 0.1 mM phenylmethylsulfonyl fluoride, 5 mM β-mercaptoethanol, 0.1% CHAPS, and 10% glycerol), on ice for 10 min. To this mixture, three volumes of CHAPS-based buffer (10 mM Tris-HCl, pH 7.5, 1 mM MgCl2, 1 mM EGTA, 0.1 mM phenylmethylsulfonyl fluoride, 5 mM β-mercaptoethanol, 0.5% CHAPS, and 10% glycerol) were added and kept on ice for 5 min. […] For the extraction of tissues, tissues were homogenized in SDS-based lysis buffer with a Kontes pellet pestle (Fisher, Pittsburgh, Pa.), mixed with three volumes of CHAPS-based buffer, and centrifuged were centrifuged at 8,000 g for 15 min at 4° C. The supernatant was kept at −20° C. The protein concentration of the supernatant was determined using Bicinchoninic Acid Kit (Sigma, St Louis, Mo.). The protein concentration was adjusted to 0.5 μg/μl with CHAPS-based buffer. Samples with equal amounts of protein (1-2 μg) were analyzed by TRAP. […] The TRAP reaction mixture contained 2-4 μl of protein extract, 20 mM Tris.HCl (pH 8.3), 1.5 mM MgCl2, 63 mM KCl, 0.005% Tween-20, 1 mM EGTA, 50 μM dNTPs, 0.1 μg of TS primer, 0.1 mg/ml bovine serum albumin. The mixture was incubated at 30° C. for 30 min, then at 90° C. for 2 min.
This was accomplished by using phenol/chloroform extraction of the cell lysate, as follows. One μg of tRNA and 0.1 ng internal control template were added to the reaction solution after primer extension. The total volume of the mixture was brought to 100 μl with water, mixed with an equal volume of buffer saturated phenol (Life Technology) and then centrifuged at 18,000 g for 3 min, at room temperature. The top aqueous layer (90 μl) was carefully transferred to a new tube and mixed with an equal volume of chloroform:isoamyl alcohol (24:1) solution and centrifuged at 18,000 g for 3 min, at room temperature. The top aqueous layer (80 μl) was again transferred to a new tube and the nucleotides were precipitated with 0.2 volume of 3 M sodium acetate (pH 5.3) and 3 volume of 100% ethanol at −70° C. for at least 2 hr. The mixture was centrifuged at 18,000 g for 15 min at 4° C. […]
(§1) The template for the internal standard was amplified by PCR and purified by spin columns (QIAquick PCR purification kit, Qiagen, Valencia, Calif.). The concentration was determined by a spectrophotometer.
PCR was performed on the GeneAmp PCR system 2400 (Perkin Elmer) and initiated by 1 cycle at 94° C. for 3 min, 50° C. for 4 min, and 68° C. for 2 min, then 25 rounds at 94° C. for 30 sec, 50° C. for 30 sec, and 68° C. for 90 sec, followed by 68° C. for 10 min. […] The gel was then dried and the amplification products were detected. […]

[2] = test system: telomerase activity in histocultures of FaDu xenograft tumors; test: TRAP telomerase activity in tumor histocultures; format: cell-based, human; conditions: 1 μM paclitaxel
Protocol: Histocultures of solid tumors. Histocultures are cultures of tumor fragments where the three dimensional structure and the heterogeneous tissue composition are maintained. […] Tumor specimens were washed three times with culture medium for three times and dissected into about 1 mm^3 fragments under sterile conditions. The culture medium for the FaDu histocultures was MEM supplemented with 9% heat-inactivated FBS, 2 mM glutamine, 90 μg/ml gentamicin and 90 μg/ml cefotaxime sodium.
For the preparation of cell and tissue extracts, cells and tissue were harvested, washed, and stored at −70° C. […] The protein concentration of the supernatant was determined using Bicinchoninic Acid Kit (Sigma, St Louis, Mo.). […] Samples with equal amounts of protein (1-2 μg) were analyzed by TRAP. […]
as §1
PCR was performed on the GeneAmp PCR system 2400 (Perkin Elmer) and initiated by 1 cycle at 94° C. for 3 min, 50° C. for 4 min, and 68° C. for 2 min, then 25 rounds at 94° C. for 30 sec, 50° C. for 30 sec, and 68° C. for 90 sec, followed by 68° C. for 10 min. […] The gel was then dried and the amplification products were detected.

FaDu cells [3] = test: SRB paclitaxel cytotoxicity in hTR antisense transfected cells; format: cell-based; conditions: Homo sapiens, +antisense + IPTG cells (IPTG 44 days), paclitaxel 96 hours, read-out: IC50 of paclitaxel, clone #1
Protocol: In vitro drug activity evaluation. Drug effect was measured in three ways, i.e., by enumerating the number of cells that remained attached in culture flask, by enumerating the number of cells that detached from the growth surface, and changes in levels of apoptosis. The first measurement represents the overall drug effect, i.e., the combination of cytostatic and cytotoxic effects, whereas the latter two measurements reflect the cytotoxic effect. The remaining cell number after drug treatment was measured using the sulforhodamine B (SRB) assay which stains for cellular protein (Skehan P et al. (1990) J Natl Cancer Inst 82:1107-1112).
In brief, cells were seeded onto 96-well plates. To avoid changes in drug concentration caused by excessive evaporation of medium in wells located at the edge of the plate only the inner wells in 96-well plates were used. The outer wells contained only tissue culture media to serve as blanks. […] The amount of SRB was measured by absorbance at 490 nm using an EL 340 microplate biokinetics reader (Bio-Tek Instruments, Inc., Winooski, Vt.). The absorbance is proportional to the number of cells attached to the culture plate. […]
Effect of hTR antisense on the cytotoxic effect of paclitaxel. […] The cytotoxic effect of paclitaxel was quantified using the SRB method which measures the total cellular proteins. […]

FaDu cells [4] = test: SRB assay of cell number, AZT and paclitaxel; format: cell-based, human; conditions: 24 hr
Protocol: In brief, cells were seeded onto 96-well plates. To avoid changes in drug concentration caused by excessive evaporation of medium in wells located at the edge of the plate only the inner wells in 96-well plates were used. The outer wells contained only tissue culture media to serve as blanks. At the end of drug treatment, the culture medium was removed from the wells by aspiration and the cells were then fixed by incubating with 0.2 ml 10% trichloroacetic acid at 4° C. for 1 hr, followed by five washes with distilled water. The plates were then air-dried after which SRB solution (0.05 ml of 0.4%) was added to stain cells for 10 min at room temperature. […] The amount of SRB was measured by absorbance at 490 nm using an EL 340 microplate biokinetics reader (Bio-Tek Instruments, Inc., Winooski, Vt.). The absorbance is proportional to the number of cells attached to the culture plate. […]
Drug activity evaluation. Agent effect was measured in three ways, i.e., enumeration of the number of cells that remained attached in culture flask, enumeration of the number of cells that detached from the growth surface, and by measuring changes in apoptosis. […] The remaining cell number after agent treatment was measured using the sulforhodamine B (SRB) assay. The drug-induced detachment of cells from the growth surface was determined by counting the attached and detached cells. […]

FaDu, MCF7 and PC3 cells = test: Cell Death Detection ELISA, release of DNA-histone complex; format: cell-based, human; conditions: single agents vs untreated controls
Protocol: Apoptosis was measured as the release of DNA-histone complex from the nucleus to the cytoplasm, using the Cell Death Detection ELISA kit which quantifies the amount of DNA-histone complex released into the cytoplasm. Briefly, drug-treated cells were collected and lysed in the lysis buffer. The cytoplasmic fractions of the lysates were placed in wells of a 96-well microtiter plate pre-coated with mouse antihistone primary antibody and mouse anti-DNA-antibody conjugated to peroxidase. The peroxidase substrate, 2,2′-azido-di-[3-ethylbenzthiazoline sulfonate], was applied and the absorbance at 405 nm was measured.
Treatment Protocol. Treatment with the above agents was initiated after cells were allowed to attach to the growth surface in culture flasks. […]
Drug activity evaluation. Agent effect was measured in three ways, i.e., enumeration of the number of cells that remained attached in culture flask, enumeration of the number of cells that detached from the growth surface, and by measuring changes in apoptosis. […] The remaining cell number after agent treatment was measured using the sulforhodamine B (SRB) assay. The drug-induced detachment of cells from the growth surface was determined by counting the attached and detached cells. Drug-induced apoptosis was measured using the Cell Death Detection ELISA kit which measures the release of DNA-histone complex from the nucleus to the cytoplasm. […]

telomere length = test: TALA telomere length, paclitaxel and AZT alone or in combination; format: cell-based, human
Source text: The effect of paclitaxel and AZT, alone or in combination, on telomere length was studied using TALA.

[5] = test system: human pharynx FaDu xenografts; test: Antitumor effect in mice bearing FaDu xenografts
Protocol: The activity of paclitaxel, with or without AZT, was evaluated in immunodeficient mice (male Balb/c nu/nu mice, 6-8 weeks old) bearing the human pharynx FaDu xenografts. […] The saline control group received injections of 200 μl/day of physiological saline of five consecutive days. The paclitaxel group received injections of 10 mg/kg/day paclitaxel dissolved in Cremophor and ethanol (i.e., Taxol) in a volume of 200 μl for five consecutive days. The AZT group received a seven-day infusion of AZT at a rate of 200 ng/hr by a subcutaneously implanted Alzet minipump. […] Animal weights and tumor sizes were measured on days 1, 3, 6, 8, and 10 after initiation of the paclitaxel treatment.
The antitumor effect of the drug treatments was measured in three ways. The first was the reduction in tumor size. Tumor sizes were determined by first preparing a mold of the extruding tumor using Jeltrate, a rapidly setting molding material, and then preparing and weighing the countermold. Second, the apoptotic effect was measured. […] The tumor sections were evaluated morphologically for tumor cell density, and density of apoptotic cells. […] Third, the ability of drug treatment to prolong the survival time was measured. For this study, the animals were monitored for 100 days, or until moribundity, defined by a tumor length exceeding 1.0 cm, was reached.

In the case of `CC(=O)O[C@H]1C(=O)[C@@]2(C)[C@H]([C@H](OC(=O)c3ccccc3)[C@]3(O)C[C@H](OC(=O)[C@H](O)[C@@H](NC(=O)c4ccccc4)c4ccccc4)C(C)=C1C3(C)C)[C@]1(OC(C)=O)CO[C@@H]1C[C@@H]2O` [paclitaxel], the “shortening of telomeric length” value (SKOV3 cells; 24 hr, compared to untreated controls) is reported as 13%, the “telomere shortening on extending treatment” value (SKOV3 cells; 36 hr) is reported as “did not produce a greater telomere shortening” and the detached cell fraction (PC3 cells) is reported as 68%. The peak telomerase activity ([1]; 3 hr) was ~180 % of control value, the telomerase activity ([1]; 24 hr) was “returning to the baseline level” and the telomerase activity ([1]; 48 hr) was 50 % of the control values. For the same molecule, the “time of peak telomerase activity” value [2] was 12 h, the telomerase activity ([2]; 96 hr) was “about 50 % of the baseline level” and the IC50 (FaDu cells [3]) was 1.3 nM. For the same molecule, the Emax (FaDu cells [4]; Homo sapiens, FaDu, paclitaxel alone, up to 10 μM, read-out: maximum effect (reduction of cell number)) was 35%, the cell number (FaDu cells [4]; paclitaxel alone 100 nM, fixed concentration method) was “about 65 % of the control value” and the “release of DNA-histone complex from the nucleus to the cytoplasm” value (FaDu, MCF7 and PC3 cells) was “significant enhancement”. The “shortening of the average telomeric length” value (telomere length; 200 nM paclitaxel 24 hr, combination: 10 μM AZT 24 hr pretreatment then AZT plus paclitaxel 24 hr) was 13%, the “telomere shortening on extending treatment” value (telomere length; paclitaxel 36 hr) was “did not produce a greater telomere shortening” and the “median time to reach moribundity” value ([5]; Kaplan Meier analysis, monitored 100 days) was 42 days. The tumor-free survivors ([5]; of 12 animals) was “did not show tumor-free survivors”.
